{"source": "paper PMC11157491", "about": "“Novel Alaninamide Derivatives with Drug-like Potential for Development as Antiseizure and Antinociceptive Therapies—In Vitro and In Vivo Characterization” (ACS Chemical Neuroscience, 2024)", "key": {"[1]": {"tested_on": "mice", "test": "Maximal electroshock (MES) seizure test", "format": "in vivo", "details": "Mus musculus, ip", "source_text": "(§1) Identification and profiling of new ASM candidate compounds are still largely based on predictive animal models of seizures/epilepsy, while a range of in silico and in vitro approaches (i.e., molecular modeling or high throughput screening, etc.) are increasingly used in the early stages of ASM discovery.[31] The Epilepsy Therapy Screening Program (ETSP) of the National Institute of Neurological Disorders and Stroke (NIH, Bethesda, MD) has enabled the discovery of several approved ASMs by focusing on the in vivo testing of compounds synthesized by both academic laboratories and industry.[32] The ETSP provides a broad panel of seizure tests (ca. 30 rodent models), but a subset of them is used for the initial screening of new compounds with potential antiseizure activity. The routinely used seizure models include: (i) the MES test, which is an experimental model of tonic–clonic seizures, (ii) the 6 Hz model (32 mA) of focal seizures, and (iii) the scPTZ model of generalized absence or myoclonic seizures.[33],[34] Consequently, in the current studies, all final compounds 21–36 and 45–48 were initially studied in the MES and the 6 Hz (32 mA) seizure models after intraperitoneal (i.p.) administration at a screening dose of 100 mg/kg in mice at a time point of 0.5 h (the screening group consisted of four mice, and the results obtained are summarized in Table S1).\n(§2) These parameters were then used to calculate the protective indexes (PIs, PI = TD50/ED50), which describe the therapeutics window of potential drug candidates. The ED50, TD50, and PI values for the tested compounds together with data of their chemical prototypes KA-11 and KJ-5 and reference ASMs are summarized in Table 2.\n(§3) The adult male Albino Swiss mice weighed between 22 and 26 g were used in the in vivo studies. They were housed under standardized housing conditions in colony cages and had free access to food as well as tap water. The animals were left to adapt under laboratory conditions for 7 days. All procedures involving animals and their care were performed in accordance with the current European Community and Polish legislation on animal experimentation.\n(§4) In the initial screening studies, four mice per group were randomly assigned to each experimental group (each mouse was used only once). To evaluate the ED50 or TD50 values, four groups consisting of eight animals were injected with various doses of tested compounds. The protective indexes (PIs) for the compounds investigated and reference ASMs were calculated by dividing the TD50 value, as determined in the chimney test, by the respective ED50 value, as determined in the MES, scPTZ, or 6 Hz (32 or 44 mA) tests (PI = TD50/ED50). The PIs are a measure of the potential therapeutic window of the tested agent.\n(§5) All substances were suspended in Tween 80 (1% aqueous solution) and administered i.p. as a single injection at a dose of 10 mL/kg. On each day of experimentation, fresh solutions were prepared. The detailed in vivo procedures are described elsewhere: the maximal electroshock seizure test (MES),[60] the subcutaneous pentylenetetrazole seizure test (scPTZ),[61] the 6 Hz psychomotor seizure model (32 and 44 mA),[62] and the chimney test.[63] The reference ASMs were purchased from commercial suppliers: VPA (Sigma-Aldrich, St. Louis, MO), LCS, and LEV (UCB Pharma, Braine l’Alleud, Belgium)."}, "[2]": {"tested_on": "mice", "test": "6 Hz (32 mA) psychomotor seizure model", "format": "in vivo", "details": "Mus musculus, ip; for responders at 100 mg/kg: 100 mg/kg i.p., 0.5 h", "source_text": "as §1, §2, §3, §4, §5"}, "[3]": {"tested_on": "mice", "test": "Subcutaneous pentylenetetrazole (scPTZ) seizure test", "format": "in vivo", "details": "100 mg/kg i.p.", "source_text": "as §2, §4, §5"}, "[4]": {"target": "T1, TRPV1 (VR1) (h) (Homo sapiens, UniProt Q8NER1)", "T1 construct": "Eurofins (contract assay)", "T1 sequence (Q8NER1 whole entry)": "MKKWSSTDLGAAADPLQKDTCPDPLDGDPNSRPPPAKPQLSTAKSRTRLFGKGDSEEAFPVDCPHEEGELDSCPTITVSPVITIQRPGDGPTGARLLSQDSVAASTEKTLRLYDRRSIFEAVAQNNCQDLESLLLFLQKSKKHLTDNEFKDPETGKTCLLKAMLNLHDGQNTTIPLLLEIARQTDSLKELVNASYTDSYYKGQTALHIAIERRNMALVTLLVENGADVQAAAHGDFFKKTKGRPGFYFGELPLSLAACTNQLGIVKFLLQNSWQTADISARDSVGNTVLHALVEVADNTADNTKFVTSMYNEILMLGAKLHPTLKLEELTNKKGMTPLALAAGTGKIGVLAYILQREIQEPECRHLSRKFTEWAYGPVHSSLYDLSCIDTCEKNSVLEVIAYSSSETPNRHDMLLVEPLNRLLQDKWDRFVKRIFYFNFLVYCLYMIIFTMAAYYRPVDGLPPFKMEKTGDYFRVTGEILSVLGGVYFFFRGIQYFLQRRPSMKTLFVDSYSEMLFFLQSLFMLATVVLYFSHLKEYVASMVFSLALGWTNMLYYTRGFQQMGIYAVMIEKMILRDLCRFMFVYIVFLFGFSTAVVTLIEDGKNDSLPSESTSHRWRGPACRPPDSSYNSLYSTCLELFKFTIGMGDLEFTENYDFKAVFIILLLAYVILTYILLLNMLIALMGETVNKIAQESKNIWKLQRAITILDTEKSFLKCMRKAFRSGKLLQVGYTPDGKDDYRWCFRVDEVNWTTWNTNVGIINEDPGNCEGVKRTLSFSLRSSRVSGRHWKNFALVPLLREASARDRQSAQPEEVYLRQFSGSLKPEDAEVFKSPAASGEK", "test": "TRPV1 antagonist effect functional assay", "format": "cell-based", "details": "10 μM, human recombinant CHO cells; read-out: % inhibition of control agonist response", "description": "For many years, the TRPV1 channel, permeable to calcium and sodium ions, has been recognized as a promising molecular target for novel analgesics.[19] […] Therefore, bearing in mind the involvement of TRPV1 in pain sensation and potentially in seizure induction, in the next step of the in vitro studies, the TRPV1 antagonist activity was determined for all compounds obtained (Table 6).\nBinding/functional studies were carried out commercially in Eurofins Laboratories (Poitiers, France) and Eurofins Panlabs Discovery Services Taiwan, Ltd. (New Taipei City, Taiwan) using testing procedures that were reported previously (for details, see Table S2).\nTable S2. Radioligand binding and functional assays. […]\nTRPV1 (VR1) (h) (antagonist effect) […]\nAssays were performed commercially in Eurofins Laboratories ( Poitiers, France) or Eurofins Panlabs Discovery Services\nTaiwan, Ltd. (New Taipei City, Taiwan)."}}}
{"compound": "CC(=O)NC(C)C(=O)N1CCN(c2cccc(SC(F)(F)F)c2)CC1", "note": "(stereo not drawn) [Compound 30, N-(1-oxo-1-(4-(3-((Trifluoromethyl)thio)phenyl)piperazin-1-yl)propan-2-yl)acetamide]", "values": [{"measurement": "responders at 100 mg/kg", "setting": "[1]; 100 mg/kg i.p., 0.5 h, read-out: MES: number of mice protected/number of mice tested (converted)", "value": 100, "unit": "%"}, {"measurement": "ED50", "setting": "[1]; mice, pretreatment 0.5 h", "value": 45.3, "unit": "mg/kg"}, {"measurement": "responders at 100 mg/kg", "setting": "[2]; four mice, read-out: protection in 6 Hz (32 mA) screening", "value": 100, "unit": "%"}, {"measurement": "responders at 100 mg/kg", "setting": "[2]; read-out: 6 Hz (32 mA): number of mice protected/number of mice tested (converted)", "value": 100, "unit": "%"}, {"measurement": "ED50", "setting": "[2]; mice, pretreatment 0.5 h", "value": 39.1, "unit": "mg/kg"}, {"measurement": "protection in scPTZ screening", "setting": "[3]", "value": 50, "unit": "%"}, {"measurement": "scPTZ: number of mice protected/number of mice tested", "setting": "[3]; 0.5 h", "value": "2/4"}, {"measurement": "inhibition at 10 µM", "setting": "[4]", "value": 12, "unit": "%"}, {"measurement": "melting point", "value": "110.9 to 111.7", "unit": "°C"}]}
